# According to US20250129045A1, “SMALL MOLECULE PIM AND MTOR KINASE INHIBITOR AND METHODS OF USE THEREOF” (Arizona Board of Regents on Behalf of the University of …, priority 2022, published 2025):
# Assays:
# Assay type in all cases: cell-based
# Prostate Cancer Growth = test: SAR studies using inhibition of prostate cancer growth as a readout; details: SAR by substituent position
# [1] = tested on: PANC1 pancreatic cancer cells; test: Growth inhibition of PANC1 pancreatic cancer cells
# Procedure: Cell growth assay: Tumor cells were seeded into 48 well plates (1000 cells/well) and treated with varied agents. The Incucyte real-time imaging system (Incucyte) was used to measure cell proliferation using a non-label cell monolayer confluence approach. The images were captured every 12 h. Graphs were generated using an integrated confluence metric as an alternative for cell numbers. At the end of the study cell growth was visualized by crystal violet staining.
# (§1) Because of ease of growth, PANC1 pancreatic cancer cells were used to test the activity of derivatives of VBT-5445 (FIG. 14). […] Using a doxycycline inducible Pim kinase vector in these tumor cells, this inhibition of phosphorylation was proportional to the level of Pim in these cells (FIG. 9). […] Inhibition of mTORC1 is known to stimulate the feedback activation of mTORC2 leading to AKT phosphorylation. […] The effect of these compounds on mTORC1 and 2 was still evident in PC3-LN4 cells that contained a knockout (KO) using CRISPR/CAS9 of either TSC2 or DEPDC5 (FIG. 12, lanes 4-9). TSC2 KO activated the Rheb GTPase while DEPDC5 KO activated the RAG GTPase both of which stimulate mTORC1 activity. Thus, GRG compounds were capable of inhibiting mTORC1 activity even when this kinase was highly activated.
# mTORC = test: Phosphorylation of mTORC substrates in PANC1 cells (Western blot); details: overnight incubation, FIG. 19
# Procedure: Immunoblotting: Western blots were performed as described previously. Briefly, protein lysates (30 μg) were subjected to SDS-PAGE and transferred to nitrocellulose membranes. After blocking with 5% milk in TBST buffer for 30 min at room temperature, the membranes were incubated overnight at 4° C. with the Indicated primary antibody in 3% BSA in TBST. Specific proteins were detected with the corresponding HRP conjugated secondary antibody using enhanced chemiluminescence (GE Lifesciences, Piscataway, NJ).
# as §1
# PANC1 cells = test: Reverse-phase protein array (RPPA) of PANC1 cells, Table 3; details: 6 h treatment, divided by zero-time value, average of triplicate
# Procedure: To further examine how these compounds function to inhibit tumor growth, changes in both a wide variety of phosphoprotein and protein levels using reverse-phase protein arrays (RPPA) were evaluated. […] The values in the RPPA obtained at these two time points were divided by the value at time zero to allow an evaluation of the changes caused by each drug treatment.
smiles,measurement,setting,value
COc1ccc(OCCn2c(=O)c(CNCc3cc(Br)ccn3)cc3ccc(Cl)cc32)cc1 [GRG-1-166],Activity (inhibition of prostate cancer growth),Prostate Cancer Growth,"Brings activity, though 4-chloro"
CN(Cc1ccccn1)Cc1cc2ccc(Cl)cc2n(CCOc2ccccc2)c1=O [GRG-1-61],Activity (inhibition of prostate cancer growth),Prostate Cancer Growth,Reduces activity to some extent
COc1ccc(OCCn2c(=O)c(CNCc3cc(C(F)(F)F)ccn3)cc3ccc(Cl)cc32)cc1 [GRG-1-127],Activity (inhibition of prostate cancer growth),Prostate Cancer Growth,"Brings activity, though 4-chloro"
"O=c1c(CNCc2ccccn2)cc2ccc(Cl)cc2n1CCSc1ccccc1 [GRG-1-104, 7-chloro-1-(2-(phenylthio)ethyl)-3-(((pyridin-2-ylmethyl)amino)methyl)quinolin-2 (1H)-one]",growth inhibitory activity against PANC1 pancreatic cancer cells,[1],most active
same,"block of phosphorylation of mTORC substrates (AKT, 4E-BP1, S6)",mTORC,block the phosphorylation of mTORC substrates
same,Activity (inhibition of prostate cancer growth),Prostate Cancer Growth,Active
O=c1c(COCc2ccccc2)cc2ccc(Cl)cc2n1CCOc1ccccc1 [GRG-1-60],growth inhibitory activity against PANC1 pancreatic cancer cells,[1],inactive
same,"block of phosphorylation of mTORC substrates (AKT, 4E-BP1, S6)",mTORC,not
same,Activity (inhibition of prostate cancer growth),Prostate Cancer Growth,Contributes to loss of activity
O=c1c(COCc2ccccn2)cc2ccc(Cl)cc2n1CCOc1ccccc1 [GRG-1-63],Activity (inhibition of prostate cancer growth),Prostate Cancer Growth,Contributes to loss of activity
COc1ccc(CNCc2cc3ccc(Cl)cc3n(CCOc3ccccc3)c2=O)nc1 [GRG-1-27],Activity (inhibition of prostate cancer growth),Prostate Cancer Growth,2 active compounds
"O=C(NCc1cc2ccc(Cl)cc2n(CCOc2ccccc2)c1=O)c1ccccn1 [GRG-1-94, N-((7-chloro-2-oxo-1-(2-phenoxyethyl)-1,2-dihydroquinolin-3-yl)methyl) picolinamide]",growth inhibitory activity against PANC1 pancreatic cancer cells,[1],inactive
same,"block of phosphorylation of mTORC substrates (AKT, 4E-BP1, S6)",mTORC,not
O=c1c(CNCc2ccc(C(F)(F)F)cn2)cc2ccc(Cl)cc2n1CCOc1ccccc1 [GRG-1-28],Activity (inhibition of prostate cancer growth),Prostate Cancer Growth,2 active compounds
O=c1c(CNCc2cc(Br)ccn2)cc2ccc(N3CCOCC3)cc2n1CCOc1ccccc1 [GRG-02-24],Activity (inhibition of prostate cancer growth),Prostate Cancer Growth,Contributes to loss of activity
O=c1c(CNCc2cccc(Br)n2)cc2ccc(Cl)cc2n1CCOc1ccccc1 [ZH-2-44],Activity (inhibition of prostate cancer growth),Prostate Cancer Growth,1 active compound (methoxy)
O=c1c(CNCc2ncccc2F)cc2ccc(Cl)cc2n1CCOc1ccccc1 [ZH-2-50],Activity (inhibition of prostate cancer growth),Prostate Cancer Growth,Less active
COc1ccnc(CNCc2cc3ccc(Cl)cc3n(CCOc3ccccc3)c2=O)c1 [GRG-1-95],Activity (inhibition of prostate cancer growth),Prostate Cancer Growth,6 active compounds
COc1ccc(OCCn2c(=O)c(CNCc3cc(Cl)ccn3)cc3ccc(Cl)cc32)cc1 [GRG-1-167],Activity (inhibition of prostate cancer growth),Prostate Cancer Growth,substitution decreases activity
COc1ccc(OCCn2c(=O)c(CNCc3ccccn3)cc3ccc(Cl)cc32)cc1 [GRG-1-70],Activity (inhibition of prostate cancer growth),Prostate Cancer Growth,"Brings activity, though 4-chloro"
Cc1ccnc(CNCc2cc3ccc(Cl)cc3n(CCOc3ccccc3)c2=O)c1 [GRG-1-96],Activity (inhibition of prostate cancer growth),Prostate Cancer Growth,6 active compounds
"CC(C)n1nc(-c2cc3cc(O)ccc3[nH]2)c2c(N)ncnc21 [pp242, reference compound]","4EBP1S65, RPPA value after treatment / zero-time value",PANC1 cells,0.22
same,"4EBP1T70, RPPA value after treatment / zero-time value",PANC1 cells,0.32
same,"ATMS1981, RPPA value after treatment / zero-time value",PANC1 cells,0.46
same,"CICaspase3D175, RPPA value after treatment / zero-time value",PANC1 cells,0.7
same,"CofilinS3, RPPA value after treatment / zero-time value",PANC1 cells,0.6
same,"CrkIIY221, RPPA value after treatment / zero-time value",PANC1 cells,1.57
same,"ERKT202_Y204, RPPA value after treatment / zero-time value",PANC1 cells,2.04
same,"FAKY576_577, RPPA value after treatment / zero-time value",PANC1 cells,0.81
same,"FKHR-FOX01S256, RPPA value after treatment / zero-time value",PANC1 cells,1.03
same,"GSK3a_bS21_9, RPPA value after treatment / zero-time value",PANC1 cells,1.09
same,"HistoneH2AXS139, RPPA value after treatment / zero-time value",PANC1 cells,1.19
same,"HistoneH3S10, RPPA value after treatment / zero-time value",PANC1 cells,0.64
same,"IL-1bcleavedD116, RPPA value after treatment / zero-time value",PANC1 cells,0.46
same,"Jak1Y1022_1023, RPPA value after treatment / zero-time value",PANC1 cells,0.71
same,"MAPKpTEpY, RPPA value after treatment / zero-time value",PANC1 cells,0.64
same,"PDGFRbY751, RPPA value after treatment / zero-time value",PANC1 cells,0.67
same,"PP1aT320, RPPA value after treatment / zero-time value",PANC1 cells,0.61
same,"PaxillinY118, RPPA value after treatment / zero-time value",PANC1 cells,0.9
same,"RetY905, RPPA value after treatment / zero-time value",PANC1 cells,0.25
same,"S6RibosomalPS235_236, RPPA value after treatment / zero-time value",PANC1 cells,0.34
same,"S6RibosomalProtein S240_244, RPPA value after treatment / zero-time value",PANC1 cells,0.66
same,"SAPK_JNKT183_Y185, RPPA value after treatment / zero-time value",PANC1 cells,1.07
same,"Stat2Y690, RPPA value after treatment / zero-time value",PANC1 cells,0.76
same,"Stat3Y705, RPPA value after treatment / zero-time value",PANC1 cells,0.51
same,"Tyk2Y1054_1055, RPPA value after treatment / zero-time value",PANC1 cells,0.51
same,"VEGFR2Y1175, RPPA value after treatment / zero-time value",PANC1 cells,0.34
same,"YAPS127, RPPA value after treatment / zero-time value",PANC1 cells,0.76
same,"cAbIY245, RPPA value after treatment / zero-time value",PANC1 cells,1.54
same,"cKitY703, RPPA value after treatment / zero-time value",PANC1 cells,1.09
same,"p38MAPKT180_Y182, RPPA value after treatment / zero-time value",PANC1 cells,0.59
same,"p70S6KS371, RPPA value after treatment / zero-time value",PANC1 cells,0.39
same,"p70S6KT389, RPPA value after treatment / zero-time value",PANC1 cells,0.29
same,"p90RSKS380, RPPA value after treatment / zero-time value",PANC1 cells,0.91
Cc1cccc(CNCc2cc3ccc(Cl)cc3n(CCOc3ccccc3)c2=O)n1 [GRG-1-31],growth inhibitory activity against PANC1 pancreatic cancer cells,[1],most active
same,"block of phosphorylation of mTORC substrates (AKT, 4E-BP1, S6)",mTORC,block the phosphorylation of mTORC substrates
